{"source": "ChEMBL document CHEMBL1123249", "about": "“Nitrobenzyl derivatives as bioreductive alkylating agents: evidence for the reductive formation of a reactive intermediate” (1986)", "format_in_all_cases": "functional, Mus musculus", "key": {"EMT6 [1]": {"tested_on": "EMT6", "test": "Compound was evaluated for its effect on survival of aerobic EMT6 tumor cells when exposed to concentration at 10E-6 M"}, "EMT6 [2]": {"tested_on": "EMT6", "test": "Compound was evaluated for its effect on survival of aerobic EMT6 tumor cells when exposed to concentration at 10E-4 M"}, "EMT6 [3]": {"tested_on": "EMT6", "test": "Compound was evaluated for its effect on survival of hypoxic EMT6 tumor cells when exposed to concentration at 10E-8 M"}, "EMT6 [4]": {"tested_on": "EMT6", "test": "Compound was evaluated for its effect on survival of hypoxic EMT6 tumor cells when exposed to concentration at 10E-6 M"}, "EMT6 [5]": {"tested_on": "EMT6", "test": "Compound was evaluated for its effect on survival of aerobic EMT6 tumor cells when exposed to concentration at 10e-8 M"}, "EMT6 [6]": {"tested_on": "EMT6", "test": "Compound was evaluated for its effect on survival of hypoxic EMT6 tumor cells when exposed to concentration at 10E-4 M"}, "EMT6 [7]": {"tested_on": "EMT6", "test": "Compound was evaluated for its effect on survival of aerobic EMT6 tumor cells when exposed to concentration at 10e-6 M"}, "EMT6 [8]": {"tested_on": "EMT6", "test": "Compound was evaluated for its effect on survival of hypoxic EMT6 tumor cells when exposed to concentration at 10e-5 M"}, "EMT6 [9]": {"tested_on": "EMT6", "test": "Compound was evaluated for its effect on survival of aerobic EMT6 tumor cells when exposed to concentration at 10E-5 M"}, "EMT6 [10]": {"tested_on": "EMT6", "test": "Compound was evaluated for its effect on survival of aerobic EMT6 tumor cells when exposed to concentration at 10e-7 M"}, "EMT6 [11]": {"tested_on": "EMT6", "test": "Compound was evaluated for its effect on survival of hypoxic EMT6 tumor cells when exposed to concentration at 10e-7 M"}}, "data": [{"smiles": "Nc1nc(SCc2ccc([N+](=O)[O-])cc2)c2nc[nH]c2n1", "values": [{"measurement": "Surviving factor", "setting": "EMT6 [1]", "value": 106, "unit": "%"}, {"measurement": "Surviving factor", "setting": "EMT6 [2]", "value": 78, "unit": "%"}, {"measurement": "Surviving factor", "setting": "EMT6 [3]", "value": 102, "unit": "%"}, {"measurement": "Surviving factor", "setting": "EMT6 [4]", "value": 137, "unit": "%"}, {"measurement": "Surviving factor", "setting": "EMT6 [5]", "value": 79, "unit": "%"}, {"measurement": "Surviving factor", "setting": "EMT6 [6]", "value": 156, "unit": "%"}]}, {"smiles": "Nc1nc(SCc2cccc([N+](=O)[O-])c2)c2[nH]cnc2n1", "values": [{"measurement": "Surviving factor", "setting": "EMT6 [7]", "value": 95, "unit": "%"}, {"measurement": "Surviving factor", "setting": "EMT6 [8]", "value": 103, "unit": "%"}, {"measurement": "Surviving factor", "setting": "EMT6 [2]", "value": 91, "unit": "%"}, {"measurement": "Surviving factor", "setting": "EMT6 [9]", "value": 103, "unit": "%"}, {"measurement": "Surviving factor", "setting": "EMT6 [4]", "value": 103, "unit": "%"}, {"measurement": "Surviving factor", "setting": "EMT6 [6]", "value": 88, "unit": "%"}]}, {"smiles": "Nc1nc(SCc2ccccc2[N+](=O)[O-])c2[nH]cnc2n1", "values": [{"measurement": "Surviving factor", "setting": "EMT6 [1]", "value": 95, "unit": "%"}, {"measurement": "Surviving factor", "setting": "EMT6 [2]", "value": 89, "unit": "%"}, {"measurement": "Surviving factor", "setting": "EMT6 [3]", "value": 94, "unit": "%"}, {"measurement": "Surviving factor", "setting": "EMT6 [4]", "value": 82, "unit": "%"}, {"measurement": "Surviving factor", "setting": "EMT6 [5]", "value": 91, "unit": "%"}, {"measurement": "Surviving factor", "setting": "EMT6 [6]", "value": 85, "unit": "%"}]}, {"smiles": "Nc1nc2[nH]cnc2c(=S)[nH]1", "note": "[THIOGUANINE]", "values": [{"measurement": "Surviving factor", "setting": "EMT6 [10]", "value": 95, "unit": "%"}, {"measurement": "Surviving factor", "setting": "EMT6 [7]", "value": 70, "unit": "%"}, {"measurement": "Surviving factor", "setting": "EMT6 [11]", "value": 89, "unit": "%"}, {"measurement": "Surviving factor", "setting": "EMT6 [8]", "value": 107, "unit": "%"}, {"measurement": "Surviving factor", "setting": "EMT6 [2]", "value": 67, "unit": "%"}, {"measurement": "Surviving factor", "setting": "EMT6 [9]", "value": 78, "unit": "%"}, {"measurement": "Surviving factor", "setting": "EMT6 [4]", "value": 90, "unit": "%"}, {"measurement": "Surviving factor", "setting": "EMT6 [6]", "value": 106, "unit": "%"}]}]}
